Test results reported in patent US20240246946A1, “MODULATORS OF TREX1” (Constellation Pharmaceuticals, Inc., priority 2021, published 2024).

Tests used:
[1] = target: T1, full length human TREX1 (Homo sapiens, UniProt Q9NSU2); assay: hTREX1 Biochemical Assay (fluorescence, dsDNA substrate degradation); conditions: biochemical, read-out: hTREX1 IC50
T1 construct: N-terminally His-Tev tagged full length human TREX1; made in house; host or cells: E. coli
T1 sequence (Q9NSU2 1-314): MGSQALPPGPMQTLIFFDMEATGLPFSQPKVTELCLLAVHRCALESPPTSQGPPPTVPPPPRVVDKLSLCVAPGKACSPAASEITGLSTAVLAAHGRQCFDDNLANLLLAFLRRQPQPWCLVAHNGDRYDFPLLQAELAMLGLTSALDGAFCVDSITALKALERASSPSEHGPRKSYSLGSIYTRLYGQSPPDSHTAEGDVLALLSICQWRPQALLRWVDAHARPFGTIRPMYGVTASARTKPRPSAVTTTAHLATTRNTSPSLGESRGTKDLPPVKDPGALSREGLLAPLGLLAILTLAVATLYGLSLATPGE
Outline: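 Cleavage of 60 nM TEX615/quencher-labelled dsDNA in pH 7.4 Tris buffer with 5 mM MgCl2, 1.0% DMSO, run 18 hours at 25° C, EDTA-quenched; fluorescence read-out.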

[2] = target: T2, full length mouse TREX1 (Mus musculus, UniProt Q91XB0); assay: mTREX1 Biochemical Assay (fluorescence, dsDNA substrate degradation); conditions: biochemical, read-out: mTREX1 IC50
T2 construct: N-terminally His-Tev tagged full length mouse TREX1; made in house; host or cells: E. coli
T2 sequence (Q91XB0 1-314): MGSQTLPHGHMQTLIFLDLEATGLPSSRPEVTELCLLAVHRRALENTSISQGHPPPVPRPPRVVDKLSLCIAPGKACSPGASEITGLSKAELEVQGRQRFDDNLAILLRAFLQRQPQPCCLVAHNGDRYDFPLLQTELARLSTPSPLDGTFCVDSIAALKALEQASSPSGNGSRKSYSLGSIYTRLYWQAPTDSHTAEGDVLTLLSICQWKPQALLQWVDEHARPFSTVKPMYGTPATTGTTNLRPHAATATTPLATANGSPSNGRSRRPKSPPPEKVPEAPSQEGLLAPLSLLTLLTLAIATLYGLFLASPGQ
Outline: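 Reaction run 18 h at 25° C. with 60 nM TEX615/quencher-labelled dsDNA and 6 pM mouse TREX1 in Tris buffer (pH 7.4, 5 mM MgCl2, 1.0% DMSO), enzyme having sat 4 h with compound across 10 concentrations. EDTA quench; substrate degradation measured as fluorescence increase.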

[3] = target: T3, human TREX2 (residues M44-A279) (Homo sapiens, UniProt Q9BQ50); assay: hTREX2 Biochemical Assay (fluorescence, dsDNA substrate degradation); conditions: biochemical selectivity for hTREX1 vs hTREX2
T3 construct: human TREX2 (residues M44-A279, expressed in E. coli); made in house; host or cells: E. coli
T3 sequence (Q9BQ50 44-279 isoform Q9BQ50-1): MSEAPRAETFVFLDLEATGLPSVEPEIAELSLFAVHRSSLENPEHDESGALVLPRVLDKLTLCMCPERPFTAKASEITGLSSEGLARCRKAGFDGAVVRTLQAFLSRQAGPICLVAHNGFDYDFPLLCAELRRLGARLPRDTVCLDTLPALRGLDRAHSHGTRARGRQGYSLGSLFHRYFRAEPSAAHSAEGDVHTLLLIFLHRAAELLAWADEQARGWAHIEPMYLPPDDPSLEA
Outline: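 N-His-Tev E. coli enzyme (50 pM) pre-incubated with compound 4 h at 25 °C, then 60 nM TEX615/quencher dsDNA added; 18 h at 25 °C, pH 7.4 Tris buffer with 5 mM MgCl2, 1.0% DMSO. EDTA-quenched; fluorescence 570 ex/615 em from liberated fluorophore, 10-point dose-response.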

[4] = target: T4, hTREX1 (Homo sapiens, UniProt Q9NSU2); assay: hTREX1 HCT116 Cell Assay (HCT116 dual cells, Lucia luciferase reporter of Type I interferon induction); type: cell-based; conditions: TREX1i 4 h before pBR322/BstNI transfection, read after 48 h
T4 construct: host or cells: HCT116 dual cells
T4 sequence (Q9NSU2 1-314): T1 sequence (Q9NSU2 1-314)
From the text: HCT116 dual cells (Invivogen, San Diego, CA, USA) are derived from the human HCT116 colorectal carcinoma cell line. Cells have been selected for the stable integration of SEAP and Luciferase reporter genes, which expression is under the control of 5 tandem response elements for NF-KB/AP1 and STAT1/STAT2, respectively. The cell line was used to monitor Type I interferon induction and subsequent signaling by measuring the activity of the Lucia luciferase secreted in the culture medium.
HCT116 cells were plated in 96-well plate(s) at 40,000 cells/well in 100 uL DMEM supplemented with 10% FBS and 25 mM Hepes (pH 7.2-7.5). After overnight settling, cells were treated with TREX1i for 4 h (maximum DMSO fraction was 0.1%) before 1 ug/mL pBR322/BstNI restriction digest (New England Biolabs, Ipswich, MA, USA) was transfected with Lipofectamine LTX (ThermoFisher, Grand Island, NY, USA), according to product manual recommendations. Briefly, Lipofectamine LTX (0.35 uL/well) was diluted in OptiMEM (5 uL/well). pBR322/BstNI (100 ng/well) was diluted in OptiMEM (5 uL/well) before Plus reagent (0.1 uL/100 ng DNA) was added. After 5 min incubation at room temperature, the DNA mixture was mixed dropwise with the diluted Lipofectamine LTX. After an additional 10 min incubation, the transfection mix (10 uL/well) was added to the cells. Cells were maintained at 37 C for 48 h before monitoring the Lucia Luciferase activity from the cell culture medium.

For `CC(c1nc(C(=O)Nc2cnoc2)c(O)c(=O)n1C)C(c1ccccc1C#N)c1ccnn1C` (single isomer, unassigned) [Example 1 D1E1], which IC50 [1] is on record?
Its IC50 is 1 to 10 nM.

What about the IC50 [2] of the same compound?
The IC50 was 1 to 10 nM.

What about the “hTREX1 vs hTREX2 selectivity” value [3] of the same compound?
Its value is “A (A = <25 fold selective for hTREX1)”.

What about the IC50 [4] of the same compound?
The IC50 was 10 to 100 nM.

Which IC50 [1] does the source give for `CC(c1nc(C(=O)Nc2cnoc2)c(O)c(=O)n1C)C(c1cnn(C)c1)c1ccccc1C#N` (single isomer, unassigned) [Example 2 D1E2] here?
Its IC50 is > 10 nM.

And the IC50 [2]?
Its IC50 is > 10 nM.

And the “hTREX1 vs hTREX2 selectivity” value [3]?
The value was “A (A = <25 fold selective for hTREX1)”.

What about the IC50 [4] of the same compound?
The IC50 was > 100 nM.

How did the IC50 [1] turn out when `CC(c1nc(C(=O)Nc2cnoc2)c(O)c(=O)n1C)C(c1cnn(C)c1)c1ccccc1C#N` (single isomer, unassigned) [Example 2 D2E2] was run?
Its IC50 is > 10 nM.

What about the IC50 [2] of the same compound?
The IC50 was > 10 nM.

And the “hTREX1 vs hTREX2 selectivity” value [3]?
The value was “A (A = <25 fold selective for hTREX1)”.

And the IC50 [4]?
Its IC50 is > 100 nM.

Which IC50 [1] does the source give for `Cc1nn(C)cc1C(c1ccccc1C#N)C(C)c1nc(C(=O)Nc2cnoc2)c(O)c(=O)n1C` (single isomer, unassigned) [Example 3 D1E1] here?
The IC50 was < 1 nM.

What about the IC50 [2] of the same compound?
Its IC50 is < 1 nM.

What about the “hTREX1 vs hTREX2 selectivity” value [3] of the same compound?
The value was “C (C = >50 fold selective for hTREX1)”.

And the IC50 [4]?
The IC50 was < 10 nM.

How did the IC50 [1] turn out when `Cc1c(C(c2ccccc2C#N)C(C)c2nc(C(=O)Nc3cnoc3)c(O)c(=O)n2C)cnn1C` (single isomer, unassigned) [Example 4 D2E2] was run?
Its IC50 is 1 to 10 nM.

And the IC50 [2]?
Its IC50 is > 10 nM.

And the “hTREX1 vs hTREX2 selectivity” value [3]?
The value was “B (B = 25 to 50-fold selective for hTREX1)”.

And the IC50 [4]?
The IC50 was > 100 nM.

With `Cc1ccc(C(c2ccccc2C#N)C(C)c2nc(C(=O)Nc3cnoc3)c(O)c(=O)n2C)cn1` (single isomer, unassigned) [Example 5 D1E2] as the compound, how does the IC50 [1] read?
The IC50 was < 1 nM.

What about the IC50 [2] of the same compound?
The IC50 was < 1 nM.

And the “hTREX1 vs hTREX2 selectivity” value [3]?
Its value is “B (B = 25 to 50-fold selective for hTREX1)”.

And the IC50 [4]?
Its IC50 is < 10 nM.

How did the IC50 [1] turn out when `Cc1cc(C(c2ccccc2C#N)C(C)c2nc(C(=O)Nc3cnoc3)c(O)c(=O)n2C)ccn1` (single isomer, unassigned) [Example 6 D1E1] was run?
Its IC50 is < 1 nM.

What about the IC50 [2] of the same compound?
The IC50 was < 1 nM.

What about the “hTREX1 vs hTREX2 selectivity” value [3] of the same compound?
Its value is “C (C = >50 fold selective for hTREX1)”.

And the IC50 [4]?
The IC50 was < 10 nM.

How did the IC50 [1] turn out when `Cc1cc(C(c2ccccc2C#N)C(C)c2nc(C(=O)Nc3cnoc3)c(O)c(=O)n2C)ccn1` (single isomer, unassigned) [Example 6 D1E2] was run?
Its IC50 is 1 to 10 nM.

And the IC50 [2]?
The IC50 was > 10 nM.

What about the “hTREX1 vs hTREX2 selectivity” value [3] of the same compound?
Its value is “B (B = 25 to 50-fold selective for hTREX1)”.

What about the IC50 [4] of the same compound?
Its IC50 is > 100 nM.

With `COCCn1cc(C(c2ccccc2C#N)C(C)c2nc(C(=O)Nc3cnoc3)c(O)c(=O)n2C)cn1` (single isomer, unassigned) [Example 9 D1E1] as the compound, how does the IC50 [1] read?
Its IC50 is < 1 nM.

What about the IC50 [2] of the same compound?
The IC50 was 1 to 10 nM.

And the “hTREX1 vs hTREX2 selectivity” value [3]?
Its value is “C (C = >50 fold selective for hTREX1)”.

And the IC50 [4]?
The IC50 was 10 to 100 nM.

With `COCCn1cc(C(c2ccccc2C#N)C(C)c2nc(C(=O)Nc3cnoc3)c(O)c(=O)n2C)cn1` (single isomer, unassigned) [Example 9 D2E1] as the compound, how does the IC50 [1] read?
Its IC50 is 1 to 10 nM.

And the IC50 [2]?
Its IC50 is > 10 nM.

And the “hTREX1 vs hTREX2 selectivity” value [3]?
The value was “C (C = >50 fold selective for hTREX1)”.

And the IC50 [4]?
The IC50 was > 100 nM.

Which results are given for `CC(c1nc(C(=O)Nc2cnoc2)c(O)c(=O)n1C)C(c1ccccc1C#N)c1cn(C)nc1C#N` (single isomer, unassigned) [Example 10 D2E1]?
IC50 [1]: < 1 nM; IC50 [2]: 1 to 10 nM; hTREX1 vs hTREX2 selectivity [3]: C (C = >50 fold selective for hTREX1); IC50 [4]: < 10 nM

For `CC(c1nc(C(=O)Nc2cnoc2)c(O)c(=O)n1C)C(c1cnn(C)c1)c1ccc(C(=O)N(C)C)cc1C#N` (single isomer, unassigned) [Example 11 D1E1], which IC50 [1] is on record?
Its IC50 is < 1 nM.

What about the IC50 [2] of the same compound?
The IC50 was < 1 nM.

What about the “hTREX1 vs hTREX2 selectivity” value [3] of the same compound?
The value was “B (B = 25 to 50-fold selective for hTREX1)”.

And the IC50 [4]?
The IC50 was > 100 nM.

How did the IC50 [1] turn out when `CC(c1nc(C(=O)Nc2cnoc2)c(O)c(=O)n1C)C(c1cn[nH]c1)c1ccccc1C#N` (single isomer, unassigned) [Example 12 D1E1] was run?
Its IC50 is < 1 nM.

What about the IC50 [2] of the same compound?
The IC50 was 1 to 10 nM.

What about the “hTREX1 vs hTREX2 selectivity” value [3] of the same compound?
Its value is “C (C = >50 fold selective for hTREX1)”.

And the IC50 [4]?
Its IC50 is 10 to 100 nM.
